Data from ChEMBL document CHEMBL4482314, “Small molecule inhibitors of ghrelin O-acyltransferase” (2012).
Active and inactive are the calls of the source. The rule behind the calls is not given here. Where a SMILES comes first, the peptide text is derived from it. [ ]: non-standard residue; d: D form. The star is where a group is joined. Octanoyl = CCCCCCCC(=O)*; Dap = NC[C@H](N)C(=O)O

Columns and labels:
[1] = target: T1, Membrane-bound ghrelin O-acyltransferase MBOAT4 (Mus musculus) (UniProt P0C7A3); test: Inhibition of His10-tagged mouse GOAT expressed in baculovirus infected Sf9 cells assessed as reduction in specific acyl transfer from tritiated-octanoyl CoA to recombinant His-tagged pro-ghrelin
T1 sequence (whole entry): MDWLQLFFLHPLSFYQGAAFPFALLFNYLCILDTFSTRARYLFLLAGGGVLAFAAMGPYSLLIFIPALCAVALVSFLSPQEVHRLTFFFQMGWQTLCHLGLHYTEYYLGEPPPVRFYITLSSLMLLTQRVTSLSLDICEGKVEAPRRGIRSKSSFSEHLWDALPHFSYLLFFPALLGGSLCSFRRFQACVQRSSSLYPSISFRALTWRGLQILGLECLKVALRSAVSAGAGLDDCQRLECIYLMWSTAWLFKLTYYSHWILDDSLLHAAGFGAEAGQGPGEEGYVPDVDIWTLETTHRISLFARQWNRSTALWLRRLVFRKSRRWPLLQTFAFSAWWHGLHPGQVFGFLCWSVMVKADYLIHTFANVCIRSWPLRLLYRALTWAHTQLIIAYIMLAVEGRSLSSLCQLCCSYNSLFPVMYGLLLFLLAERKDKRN

[2] = target: T1, Membrane-bound ghrelin O-acyltransferase MBOAT4 (Mus musculus); test: Inhibition of His10-tagged mouse GOAT expressed in baculovirus infected Sf9 cells assessed as reduction in specific acyl transfer from tritiated-octanoyl CoA to recombinant His-tagged pro-ghrelin at 500 uM
[3] = target: T1, Membrane-bound ghrelin O-acyltransferase MBOAT4 (Mus musculus); test: Inhibition of His10-tagged mouse GOAT expressed in baculovirus infected Sf9 cells assessed as reduction in specific acyl transfer from tritiated-octanoyl CoA to recombinant His-tagged pro-ghrelin at 100 uM
[4] = target: T1, Membrane-bound ghrelin O-acyltransferase MBOAT4 (Mus musculus); test: Inhibition of His10-tagged mouse GOAT expressed in baculovirus infected Sf9 cells assessed as reduction in specific acyl transfer from tritiated-octanoyl CoA to recombinant His-tagged pro-ghrelin at <500 uM
[5] = target: T2, Membrane-bound ghrelin O-acyltransferase MBOAT4 (Homo sapiens) (UniProt Q96T53); test: Inhibition of GOAT (unknown origin) expressed in intact rat INS1 cells co-expressing pre-proghrelin incubated for 24 hrs; format: cell-based
T2 sequence (whole entry): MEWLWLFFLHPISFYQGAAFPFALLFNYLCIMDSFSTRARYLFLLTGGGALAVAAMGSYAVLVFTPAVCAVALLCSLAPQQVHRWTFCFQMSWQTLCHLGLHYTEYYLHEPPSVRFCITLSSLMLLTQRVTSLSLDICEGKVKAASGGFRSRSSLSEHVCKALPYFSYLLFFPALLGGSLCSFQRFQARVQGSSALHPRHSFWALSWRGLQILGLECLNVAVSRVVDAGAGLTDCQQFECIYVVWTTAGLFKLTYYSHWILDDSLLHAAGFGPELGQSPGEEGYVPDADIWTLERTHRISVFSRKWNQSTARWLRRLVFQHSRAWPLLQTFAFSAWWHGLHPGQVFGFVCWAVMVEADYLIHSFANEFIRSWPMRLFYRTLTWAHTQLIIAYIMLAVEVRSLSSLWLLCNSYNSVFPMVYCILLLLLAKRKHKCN

Row | inhibition [1] | also measured | SMILES
1 | Active |  | CCCCCCCC(C)(O)C/C=C(/NC(=O)OCc1ccccc1)C(=O)NC(C)C (configuration not stated)
2 |  | inhibition [2]: Active | CCCCCCCC(O)CC[C@H](NC(=O)C(C)(C)CO)C(=O)OC (some centres not stated)
3 | Dose-dependent effect |  | CCCCCCCC(=O)NC[C@H](NC(=O)[C@H](CO)NC(=O)CN)C(=O)N[C@@H](Cc1ccccc1)C(=O)N[C@@H](CC(C)C)C(N)=O (H-GS[Dap](Octanoyl)FL-NH2)
4 | inactive |  | CCCCCCCC(=O)NC[C@H](NC(=O)OCc1ccccc1)C(=O)OC
5 | Dose-dependent effect |  | CCCCCCC[S+]([O-])CC[C@H](NC(=O)OCc1ccccc1)C(=O)OC (some centres not stated)
6 | Active |  | CCCCCCCC(C)(O)/C=C/CNC(=O)OCc1ccccc1 (configuration not stated)
7 |  | inhibition [3]: Active | CCCCCCCC(=O)CC[C@H](NC(=O)OCc1ccccc1)C(=O)OC
8 | inactive |  | CCCCCCCC(C)(O)/C=C/[C@H](NC(=O)C(C)(C)CO)C(=O)OC (some centres not stated)
9 |  | inhibition [3]: Active; inhibition [2]: Active; inhibition [4]: Active | CCCCCCCC(O)/C=C/[C@H](NC(=O)OCc1ccccc1)C(=O)OC (some centres not stated)
10 | Active |  | CCCCCCCC(C)(O)/C=C/[C@H](NC(=O)OCc1ccccc1)C(=O)NC(C)C (some centres not stated)
11 |  | inhibition [3]: Active | CCCCCCCC(O)CC[C@H](NC(=O)OCc1ccccc1)C(=O)N[C@H](COC)Cc1ccccc1 (some centres not stated)
12 | Active |  | CCCCCCCC(C)(O)/C=C/[C@H](NC(=O)C(C)(C)CO)C(=O)N[C@@H](Cc1ccccc1)C(=O)N[C@@H](CC(C)C)C(N)=O (some centres not stated)
13 | Dose-dependent effect | inhibition [3]: Active; inhibition [5]: Active | CCCCCCCC(C)(O)/C=C/[C@H](NC(=O)OCc1ccccc1)C(=O)OC (some centres not stated)
14 | Active | inhibition [2]: Active | CCCCCCCC(C)(O)/C=C/[C@@H](NC(=O)OCc1ccccc1)C(=O)OC (some centres not stated)
15 |  | inhibition [2]: Active; inhibition [4]: Active | CCCCCCCC(O)CC[C@H](NC(=O)C(C)(C)CO)C(=O)N[C@H](COC)Cc1ccccc1 (some centres not stated)
16 | inactive |  | CCC(C)(O)/C=C/[C@H](NC(=O)OCc1ccccc1)C(=O)OC (some centres not stated)
